From patent US10131652B2, “Pyrimidinyloxy benzene derivatives as herbicides” (E. I. DU PONT DE NEMOURS AND COMPANY, priority 2014, dated 2018)
Like-named read-outs stand apart in the source and are kept apart here.

Columns and labels:
Assay in all cases: Test F pre-/postemergence plant response
Format in all cases: in vivo
[1] = system: arrowleaf sida (Sida rhombifolia); settings: Sida rhombifolia, scale 0 to 100, read-out: Plant response rating, Arrowleaf Sida
In short: (§1)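 Formulation: non-phytotoxic solvent mix + surfactant. Preemergence: applied to seeded silt loam. Postemergence: foliar, 1- to 4-leaf plants, 2–18 cm. Greenhouse hold 14–21 days; visual score vs controls, 0 = no effect, 100 = complete control; dash = not tested.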

[2] = system: barnyardgrass (Echinochloa crus-galli); settings: Echinochloa crus-galli, scale 0 to 100, read-out: Plant response rating, Barnyardgrass
In short: as §1

[3] = system: dayflower (Virginia (VA) dayflower, Commelina virginica); settings: Commelina virginica, scale 0 to 100, read-out: Plant response rating, Dayflower, VA
In short: as §1

[4] = system: giant foxtail (Setaria faberii); settings: Setaria faberi, pre-emergence, scale 0 to 100, read-out: Plant response rating, Foxtail, Giant
In short: as §1

[5] = system: green foxtail (Setaria viridis); settings: Setaria viridis, pre-emergence, scale 0 to 100, read-out: Plant response rating, Foxtail, Green
In short: as §1

[6] = system: johnsongrass (Sorghum halepense); settings: Sorghum halepense, pre-emergence, scale 0 to 100, read-out: Plant response rating, Johnsongrass
In short: as §1

[7] = system: lambsquarters (Chenopodium album); settings: Chenopodium album, pre-emergence, scale 0 to 100, read-out: Plant response rating, Lambsquarters
In short: as §1

[8] = system: morningglory (Ipomoea coccinea); settings: Ipomoea, pre-emergence, scale 0 to 100, read-out: Plant response rating, Morningglory
In short: as §1

[9] = system: palmer pigweed (Amaranthus palmeri); settings: Amaranthus palmeri, scale 0 to 100, read-out: Plant response rating, Pigweed, Palmer
In short: as §1

[10] = system: sandbur (southern sandbur, Cenchrus echinatus); settings: Cenchrus echinatus, scale 0 to 100, read-out: Plant response rating, Sandbur
In short: as §1

[11] = system: waterhemp (common waterhemp, Amaranthus rudis); settings: Amaranthus tuberculatus, scale 0 to 100, read-out: Plant response rating, Waterhemp
In short: as §1

[12] = post-emergence, 8 g ai/ha Postemergence
[13] = post-emergence, 16 g ai/ha Postemergence
[14] = post-emergence, 31 g ai/ha Postemergence
[15] = post-emergence, 62 g ai/ha Postemergence
[16] = post-emergence, 125 g ai/ha Postemergence
[17] = pre-emergence, 8 g ai/ha Preemergence
[18] = pre-emergence, 16 g ai/ha Preemergence
[19] = pre-emergence, 31 g ai/ha Preemergence
[20] = pre-emergence, 62 g ai/ha Preemergence
[21] = pre-emergence, 125 g ai/ha Preemergence

Work on `FC(F)c1cc(-c2ccccc2Oc2ncc(Br)cn2)no1` [Compound 62, 5-bromo-2-[2-[5-(difluoromethyl)-3-isoxazolyl]phenoxy]pyrimidine] yielded a pest or weed control at 8 g/ha [1, 12] of 65%, a pest or weed control at 16 g/ha [1, 13] of 80% and a pest or weed control at 31 g/ha [1, 14] of 95%. The pest or weed control at 62 g/ha [1, 15] was 98%, the pest or weed control at 125 g/ha [1, 16] was 98% and the pest or weed control at 8 g/ha [1, 17] was 0%. The pest or weed control at 16 g/ha [1, 18] was 20%, the pest or weed control at 31 g/ha [1, 19] was 70% and the pest or weed control at 62 g/ha [1, 20] was 95%. The pest or weed control at 125 g/ha [1, 21] was 100%, the pest or weed control at 8 g/ha [2, 12] was 10% and the pest or weed control at 16 g/ha [2, 13] was 15%. For the same molecule, the pest or weed control at 31 g/ha [2, 14] was 20%, the pest or weed control at 62 g/ha [2, 15] was 20% and the pest or weed control at 125 g/ha [2, 16] was 20%. It also gave a pest or weed control at 8 g/ha [2, 17] of 0%, a pest or weed control at 16 g/ha [2, 18] of 0% and a pest or weed control at 31 g/ha [2, 19] of 0%. The pest or weed control at 62 g/ha [2, 20] was 0%, the pest or weed control at 125 g/ha [2, 21] was 25% and the pest or weed control at 8 g/ha [3, 12] was 0%. The pest or weed control at 16 g/ha [3, 13] was 0%, the pest or weed control at 31 g/ha [3, 14] was 5% and the pest or weed control at 62 g/ha [3, 15] was 25%. The pest or weed control at 125 g/ha [3, 16] was 65%, the pest or weed control at 8 g/ha [3, 17] was 0% and the pest or weed control at 16 g/ha [3, 18] was 0%. The pest or weed control at 31 g/ha [3, 19] was 0%, the pest or weed control at 62 g/ha [3, 20] was 30% and the pest or weed control at 125 g/ha [3, 21] was 80%. It also gave a pest or weed control at 8 g/ha ([4]; 8 g ai/ha Preemergence) of 0%, a pest or weed control at 16 g/ha ([4]; 16 g ai/ha Preemergence) of 15% and a pest or weed control at 31 g/ha ([4]; 31 g ai/ha Preemergence) of 35%. It also gave a pest or weed control at 62 g/ha ([4]; 62 g ai/ha Preemergence) of 65%, a pest or weed control at 125 g/ha ([4]; 125 g ai/ha Preemergence) of 75% and a pest or weed control at 8 g/ha ([5]; 8 g ai/ha Preemergence) of 0%. For the same molecule, the pest or weed control at 16 g/ha ([5]; 16 g ai/ha, Preemergence) was 0%, the pest or weed control at 31 g/ha ([5]; 31 g ai/ha, Preemergence) was 10% and the pest or weed control at 125 g/ha ([5]; 125 g ai/ha, Preemergence) was 90%. For the same molecule, the pest or weed control at 62 g/ha ([5]; Preemergence) was 40%, the pest or weed control at 8 g/ha ([6]; 8 g ai/ha Preemergence) was 0% and the pest or weed control at 16 g/ha ([6]; 16 g ai/ha Preemergence) was 0%. The pest or weed control at 31 g/ha ([6]; 31 g ai/ha Preemergence) was 20%, the pest or weed control at 125 g/ha ([6]; 125 g ai/ha Preemergence) was 40% and the pest or weed control at 62 g/ha ([6]; Preemergence) was 35%. For the same molecule, the pest or weed control at 8 g/ha ([7]; 8 g ai/ha Preemergence) was 70%, the pest or weed control at 16 g/ha ([7]; 16 g ai/ha, Preemergence) was 90% and the pest or weed control at 31 g/ha ([7]; 31 g ai/ha, Preemergence) was 95%. For the same molecule, the pest or weed control at 125 g/ha ([7]; 125 g ai/ha, Preemergence) was 100%, the pest or weed control at 62 g/ha ([7]; Preemergence) was 95% and the pest or weed control at 8 g/ha ([8]; 8 g ai/ha Preemergence) was 0%. The pest or weed control at 16 g/ha ([8]; 16 g ai/ha Preemergence) was 0%, the pest or weed control at 31 g/ha ([8]; 31 g ai/ha Preemergence) was 0% and the pest or weed control at 125 g/ha ([8]; 125 g ai/ha Preemergence) was 50%. It also gave a pest or weed control at 62 g/ha ([8]; Preemergence) of 0%, a pest or weed control at 8 g/ha [9, 12] of 90% and a pest or weed control at 16 g/ha [9, 13] of 70%. It also gave a pest or weed control at 31 g/ha [9, 14] of 95%, a pest or weed control at 62 g/ha [9, 15] of 100% and a pest or weed control at 125 g/ha [9, 16] of 100%. It also gave a pest or weed control at 8 g/ha [9, 17] of 10%, a pest or weed control at 16 g/ha [9, 18] of 80% and a pest or weed control at 31 g/ha [9, 19] of 75%. For the same molecule, the pest or weed control at 125 g/ha [9, 21] was 100%, the pest or weed control at 62 g/ha ([9]; pre-emergence, Preemergence) was 100% and the pest or weed control at 8 g/ha [10, 12] was 0%. It also gave a pest or weed control at 16 g/ha [10, 13] of 0%, a pest or weed control at 31 g/ha [10, 14] of 0% and a pest or weed control at 62 g/ha [10, 15] of 0%. The pest or weed control at 125 g/ha [10, 16] was 0%, the pest or weed control at 8 g/ha [10, 17] was 0% and the pest or weed control at 16 g/ha [10, 18] was 0%. The pest or weed control at 31 g/ha [10, 19] was 0%, the pest or weed control at 125 g/ha [10, 21] was 35% and the pest or weed control at 62 g/ha ([10]; pre-emergence, Preemergence) was 0%. For the same molecule, the pest or weed control at 8 g/ha [11, 12] was 80%, the pest or weed control at 16 g/ha [11, 13] was 90% and the pest or weed control at 31 g/ha [11, 14] was 100%. The pest or weed control at 62 g/ha [11, 15] was 100%, the pest or weed control at 125 g/ha [11, 16] was 100% and the pest or weed control at 8 g/ha [11, 17] was 80%. For the same molecule, the pest or weed control at 16 g/ha [11, 18] was 85%, the pest or weed control at 31 g/ha [11, 19] was 98% and the pest or weed control at 125 g/ha [11, 21] was 100%. It also gave a pest or weed control at 62 g/ha ([11]; pre-emergence, Preemergence) of 100%.
